From ChEMBL document CHEMBL1146261, “Design of potent inhibitors of human beta-secretase. Part 2” (Bioorg Med Chem Lett, 2007)

Each molecule was assayed against T1, Beta-secretase 1 (Homo sapiens, UniProt P56817) (assay: Inhibition of BACE).
T1 sequence (P56817 whole entry): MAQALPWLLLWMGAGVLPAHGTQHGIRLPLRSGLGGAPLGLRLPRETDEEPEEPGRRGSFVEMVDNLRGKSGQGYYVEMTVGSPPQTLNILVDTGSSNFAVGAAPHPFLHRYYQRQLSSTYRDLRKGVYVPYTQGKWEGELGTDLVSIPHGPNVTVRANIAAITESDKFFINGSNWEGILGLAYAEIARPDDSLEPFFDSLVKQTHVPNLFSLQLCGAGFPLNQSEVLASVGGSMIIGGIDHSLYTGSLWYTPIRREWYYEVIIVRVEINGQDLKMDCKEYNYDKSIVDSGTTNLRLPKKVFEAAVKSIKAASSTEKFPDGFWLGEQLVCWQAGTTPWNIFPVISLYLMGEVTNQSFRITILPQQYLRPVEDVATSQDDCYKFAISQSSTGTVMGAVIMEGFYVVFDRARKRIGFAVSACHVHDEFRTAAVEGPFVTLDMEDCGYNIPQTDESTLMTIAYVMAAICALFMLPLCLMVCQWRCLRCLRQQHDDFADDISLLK

| SMILES | IC50 |
| --- | --- |
| CCCCS(=O)(=O)C[C@@H](NC(=O)C1CC1)C(=O)N[C@@H](Cc1cc(F)cc(F)c1)[C@H](O)CNCc1cccc(CC)c1 | 10 nM |
| CCCCS(=O)(=O)CC(NC(=O)OCCC#N)C(=O)N[C@@H](Cc1cc(F)cc(F)c1)[C@H](O)CNCc1cccc(CC)c1 (some centres undefined) | 8 nM |
| CCCCS(=O)(=O)C[C@@H](NC(C)=O)C(=O)N[C@@H](Cc1cc(F)cc(F)c1)[C@H](O)CNCc1cccc(CC)c1 | 13 nM |
| CCCC(CCC)S(=O)(=O)C[C@@H](NC(=O)c1ccc(C(F)(F)F)cc1)C(=O)N[C@@H](Cc1cc(F)cc(F)c1)[C@H](O)CNCc1cccc(CC)c1 | 53 nM |
| CCCC(CCC)S(=O)(=O)C[C@@H](NC(=O)c1ccccc1)C(=O)N[C@@H](Cc1cc(F)cc(F)c1)[C@H](O)CNCc1cccc(CC)c1 | 495 nM |
| CCCCS(=O)(=O)C[C@@H](NC(=O)OCCNC(C)=O)C(=O)N[C@@H](Cc1cc(F)cc(F)c1)[C@H](O)CNCc1cccc(CC)c1 | 27 nM |
| CCCC(CCC)S(=O)(=O)C[C@@H](NC(=O)c1ccccc1C)C(=O)N[C@@H](Cc1cc(F)cc(F)c1)[C@H](O)CNCc1cccc(CC)c1 | 15 nM |
| CCCCS(=O)(=O)C[C@@H](NC(=O)OC)C(=O)N[C@@H](Cc1cc(F)cc(F)c1)[C@H](O)CNCc1cccc(CC)c1 | 4 nM |
| CCCCS(=O)(=O)C[C@@H](NC(=O)c1ccncc1)C(=O)N[C@@H](Cc1cc(F)cc(F)c1)[C@H](O)CNCc1cccc(CC)c1 | 5 nM |
| CCCCS(=O)(=O)C[C@@H](NC(=O)COC)C(=O)N[C@@H](Cc1cc(F)cc(F)c1)[C@H](O)CNCc1cccc(CC)c1 | 22 nM |
| CCCCS(=O)(=O)C[C@@H](NC(=O)SC1CCOC1)C(=O)N[C@@H](Cc1cc(F)cc(F)c1)[C@H](O)CNCc1cccc(CC)c1 (some centres undefined) | 15 nM |
| CCCCS(=O)(=O)C[C@@H](NC(=O)OCc1cccnc1)C(=O)N[C@@H](Cc1cc(F)cc(F)c1)[C@H](O)CNCc1cccc(CC)c1 | 10 nM |
| CCCCS(=O)(=O)C[C@@H](NC(=O)OCc1ccncc1)C(=O)N[C@@H](Cc1cc(F)cc(F)c1)[C@H](O)CNCc1cccc(CC)c1 | 11 nM |

Continued, values first:

| IC50 | SMILES |
| --- | --- |
| 2 nM | CCCC(CCC)S(=O)(=O)C[C@@H](NC(=O)c1ccc(OC)cc1)C(=O)N[C@@H](Cc1cc(F)cc(F)c1)[C@H](O)CNCc1cccc(CC)c1 |
| 1 nM | CCCC(CCC)S(=O)(=O)C[C@@H](NC(=O)c1cccnc1)C(=O)N[C@@H](Cc1cc(F)cc(F)c1)[C@H](O)CNCc1cccc(CC)c1 |
| 3 nM | CCCC(CCC)S(=O)(=O)C[C@@H](NC(=O)OCc1ccccc1)C(=O)N[C@@H](Cc1cc(F)cc(F)c1)[C@H](O)CNCc1cccc(CC)c1 |
| 4 nM | CCCCS(=O)(=O)C[C@@H](NC(=O)OCC(F)(F)F)C(=O)N[C@@H](Cc1cc(F)cc(F)c1)[C@H](O)CNCc1cccc(CC)c1 |
| 5 nM | CCCCS(=O)(=O)C[C@@H](NC(=O)c1cnccc1O)C(=O)N[C@@H](Cc1cc(F)cc(F)c1)[C@H](O)CNCc1cccc(CC)c1 |
| 5 nM | CCCC(CCC)S(=O)(=O)C[C@@H](NC(=O)c1cccc(Cl)c1)C(=O)N[C@@H](Cc1cc(F)cc(F)c1)[C@H](O)CNCc1cccc(CC)c1 |
| 2 nM | CCCC(CCC)S(=O)(=O)C[C@@H](NC(=O)c1cccc(O)c1)C(=O)N[C@@H](Cc1cc(F)cc(F)c1)[C@H](O)CNCc1cccc(CC)c1 |
| 2 nM | CCCCS(=O)(=O)C[C@@H](NC(=O)c1cccnc1)C(=O)N[C@@H](Cc1cc(F)cc(F)c1)[C@H](O)CNCc1cccc(CC)c1 |
| 4 nM | CCCCS(=O)(=O)C[C@@H](NC(=O)c1ncc[nH]1)C(=O)N[C@@H](Cc1cc(F)cc(F)c1)[C@H](O)CNCc1cccc(CC)c1 |
| 3 nM | CCCC(CCC)S(=O)(=O)C[C@@H](NC(=O)OCc1ccncc1)C(=O)N[C@@H](Cc1cc(F)cc(F)c1)[C@H](O)CNCc1cccc(CC)c1 |
| 4 nM | CCCCS(=O)(=O)C[C@@H](NC(=O)c1cnccn1)C(=O)N[C@@H](Cc1cc(F)cc(F)c1)[C@H](O)CNCc1cccc(CC)c1 |
| 4 nM | CCCCS(=O)(=O)C[C@@H](NC(=O)c1cc(C)n[nH]1)C(=O)N[C@@H](Cc1cc(F)cc(F)c1)[C@H](O)CNCc1cccc(CC)c1 |
| 4 nM | CCCC(CCC)S(=O)(=O)C[C@@H](NC(=O)c1ccc(C)cc1)C(=O)N[C@@H](Cc1cc(F)cc(F)c1)[C@H](O)CNCc1cccc(CC)c1 |
| 3 nM | CCCC(CCC)S(=O)(=O)C[C@@H](NC(=O)OC)C(=O)N[C@@H](Cc1cc(F)cc(F)c1)[C@H](O)CNCc1cccc(CC)c1 |
| 4 nM | CCCC(CCC)S(=O)(=O)C[C@@H](NC(=O)OCc1cccnc1)C(=O)N[C@@H](Cc1cc(F)cc(F)c1)[C@H](O)CNCc1cccc(CC)c1 |

Each molecule was assayed against T1, Beta-secretase 1 (assay: Inhibition of BACE expressed in HEK293 cells).
Format: cell-based

| SMILES | EC50 |
| --- | --- |
| CCCCS(=O)(=O)C[C@@H](NC(=O)C1CC1)C(=O)N[C@@H](Cc1cc(F)cc(F)c1)[C@H](O)CNCc1cccc(CC)c1 | 4 nM |
| CCCCS(=O)(=O)CC(NC(=O)OCCC#N)C(=O)N[C@@H](Cc1cc(F)cc(F)c1)[C@H](O)CNCc1cccc(CC)c1 (some centres undefined) | 5 nM |
| CCCCS(=O)(=O)C[C@@H](NC(C)=O)C(=O)N[C@@H](Cc1cc(F)cc(F)c1)[C@H](O)CNCc1cccc(CC)c1 | 6 nM |
| CCCC(CCC)S(=O)(=O)C[C@@H](NC(=O)c1ccc(C(F)(F)F)cc1)C(=O)N[C@@H](Cc1cc(F)cc(F)c1)[C@H](O)CNCc1cccc(CC)c1 | 76 nM |
| CCCC(CCC)S(=O)(=O)C[C@@H](NC(=O)c1ccccc1)C(=O)N[C@@H](Cc1cc(F)cc(F)c1)[C@H](O)CNCc1cccc(CC)c1 | 14 nM |
| CCCCS(=O)(=O)C[C@@H](NC(=O)OCCNC(C)=O)C(=O)N[C@@H](Cc1cc(F)cc(F)c1)[C@H](O)CNCc1cccc(CC)c1 | 12 nM |
| CCCC(CCC)S(=O)(=O)C[C@@H](NC(=O)c1ccccc1C)C(=O)N[C@@H](Cc1cc(F)cc(F)c1)[C@H](O)CNCc1cccc(CC)c1 | 59 nM |
| CCCCS(=O)(=O)C[C@@H](NC(=O)OC)C(=O)N[C@@H](Cc1cc(F)cc(F)c1)[C@H](O)CNCc1cccc(CC)c1 | 2 nM |
| CCCCS(=O)(=O)C[C@@H](NC(=O)c1ccncc1)C(=O)N[C@@H](Cc1cc(F)cc(F)c1)[C@H](O)CNCc1cccc(CC)c1 | 1 nM |
| CCCCS(=O)(=O)C[C@@H](NC(=O)COC)C(=O)N[C@@H](Cc1cc(F)cc(F)c1)[C@H](O)CNCc1cccc(CC)c1 | 4 nM |
| CCCCS(=O)(=O)C[C@@H](NC(=O)SC1CCOC1)C(=O)N[C@@H](Cc1cc(F)cc(F)c1)[C@H](O)CNCc1cccc(CC)c1 (some centres undefined) | 4 nM |
| CCCCS(=O)(=O)C[C@@H](NC(=O)OCc1cccnc1)C(=O)N[C@@H](Cc1cc(F)cc(F)c1)[C@H](O)CNCc1cccc(CC)c1 | 0.6 nM |
| CCCCS(=O)(=O)C[C@@H](NC(=O)OCc1ccncc1)C(=O)N[C@@H](Cc1cc(F)cc(F)c1)[C@H](O)CNCc1cccc(CC)c1 | 2 nM |

Other lines, results leading:

| EC50 | SMILES |
| --- | --- |
| 11 nM | CCCC(CCC)S(=O)(=O)C[C@@H](NC(=O)c1ccc(OC)cc1)C(=O)N[C@@H](Cc1cc(F)cc(F)c1)[C@H](O)CNCc1cccc(CC)c1 |
| 1 nM | CCCC(CCC)S(=O)(=O)C[C@@H](NC(=O)c1cccnc1)C(=O)N[C@@H](Cc1cc(F)cc(F)c1)[C@H](O)CNCc1cccc(CC)c1 |
| 24 nM | CCCCS(=O)(=O)C[C@@H](NC(=O)c1cnccc1O)C(=O)N[C@@H](Cc1cc(F)cc(F)c1)[C@H](O)CNCc1cccc(CC)c1 |
| 48 nM | CCCC(CCC)S(=O)(=O)C[C@@H](NC(=O)c1cccc(Cl)c1)C(=O)N[C@@H](Cc1cc(F)cc(F)c1)[C@H](O)CNCc1cccc(CC)c1 |
| 9 nM | CCCC(CCC)S(=O)(=O)C[C@@H](NC(=O)c1cccc(O)c1)C(=O)N[C@@H](Cc1cc(F)cc(F)c1)[C@H](O)CNCc1cccc(CC)c1 |
| 1 nM | CCCCS(=O)(=O)C[C@@H](NC(=O)c1cccnc1)C(=O)N[C@@H](Cc1cc(F)cc(F)c1)[C@H](O)CNCc1cccc(CC)c1 |
| 4 nM | CCCCS(=O)(=O)C[C@@H](NC(=O)c1ncc[nH]1)C(=O)N[C@@H](Cc1cc(F)cc(F)c1)[C@H](O)CNCc1cccc(CC)c1 |
| 5 nM | CCCC(CCC)S(=O)(=O)C[C@@H](NC(=O)OCc1ccncc1)C(=O)N[C@@H](Cc1cc(F)cc(F)c1)[C@H](O)CNCc1cccc(CC)c1 |
| 0.2 nM | CCCCS(=O)(=O)C[C@@H](NC(=O)c1cnccn1)C(=O)N[C@@H](Cc1cc(F)cc(F)c1)[C@H](O)CNCc1cccc(CC)c1 |
| 4 nM | CCCCS(=O)(=O)C[C@@H](NC(=O)c1cc(C)n[nH]1)C(=O)N[C@@H](Cc1cc(F)cc(F)c1)[C@H](O)CNCc1cccc(CC)c1 |
| 19 nM | CCCC(CCC)S(=O)(=O)C[C@@H](NC(=O)c1ccc(C)cc1)C(=O)N[C@@H](Cc1cc(F)cc(F)c1)[C@H](O)CNCc1cccc(CC)c1 |
| 2 nM | CCCC(CCC)S(=O)(=O)C[C@@H](NC(=O)OC)C(=O)N[C@@H](Cc1cc(F)cc(F)c1)[C@H](O)CNCc1cccc(CC)c1 |
| 5 nM | CCCC(CCC)S(=O)(=O)C[C@@H](NC(=O)OCc1cccnc1)C(=O)N[C@@H](Cc1cc(F)cc(F)c1)[C@H](O)CNCc1cccc(CC)c1 |
